In ChEMBL document CHEMBL1782019, “Pyridones as glucokinase activators: identification of a unique metabolic liability of the 4-sulfonyl-2-pyridone heterocycle” (Bioorg Med Chem Lett, 2009):

Key:
[1] = Bioavailability in Sprague-Dawley rat at 0.5 mg/kg, iv and 5 mg/kg, po; format: ADME, organism-based; conditions: in vivo
[2] = Half life in Sprague-Dawley rat at 0.5 mg/kg, iv and 5 mg/kg, po; format: ADME, organism-based; conditions: in vivo
Hexokinase-4 = target: T1, Hexokinase-4 (Homo sapiens, UniProt P35557)
T1 sequence (P35557 whole entry): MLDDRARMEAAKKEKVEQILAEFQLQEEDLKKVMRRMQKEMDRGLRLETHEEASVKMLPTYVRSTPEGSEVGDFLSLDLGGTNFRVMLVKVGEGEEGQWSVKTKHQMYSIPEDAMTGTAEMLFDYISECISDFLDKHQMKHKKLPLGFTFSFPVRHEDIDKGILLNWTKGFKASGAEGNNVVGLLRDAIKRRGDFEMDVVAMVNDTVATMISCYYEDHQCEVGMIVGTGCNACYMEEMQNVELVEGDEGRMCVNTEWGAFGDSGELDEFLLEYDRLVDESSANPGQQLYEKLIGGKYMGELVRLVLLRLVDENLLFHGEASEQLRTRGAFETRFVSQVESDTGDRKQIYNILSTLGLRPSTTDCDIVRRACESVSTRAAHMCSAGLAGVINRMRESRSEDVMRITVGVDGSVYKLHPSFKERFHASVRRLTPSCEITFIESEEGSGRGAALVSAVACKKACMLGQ
Description: Activation of human recombinant glucokinase using 6.5 mM glucose by spectrophotometry

[3] = Half life in human liver microsome at 1 uM by LC/MS/MS analysis; format: ADME; conditions: liver microsomes
[4] = Half life in rat liver microsome at 1 uM by LC/MS/MS analysis; format: ADME; conditions: liver microsomes
[5] = Fraction unbound in Sprague-Dawley rat at 0.5 mg/kg, iv and 5 mg/kg, po; format: ADME, organism-based; conditions: plasma
[6] = Clearance in Sprague-Dawley rat at 0.5 mg/kg, iv and 5 mg/kg, po; format: ADME, organism-based; conditions: in vivo
[7] = Hepatic clearance in rat liver microsome at 1 uM by LC/MS/MS analysis; format: ADME; conditions: liver microsomes
[8] = Hepatic clearance in human liver microsome at 1 uM by LC/MS/MS analysis; format: ADME; conditions: liver microsomes

EC50 (Hexokinase-4) [nM]	SMILES	also measured
3500	Cc1cnc(NC(=O)[C@H](CC2CCCC2)n2ccc(S(C)(=O)=O)cc2=O)cn1	bioavailability [1]: 2%; half-life [2]: 12 min; half-life at 1 µM [3]: > 120 min; half-life at 1 µM [4]: 56 min; fraction unbound [5]: 0.35; clearance [6]: 337 mL/min/kg; CLhep predicted at 1 µM [7]: 31 mL/min/kg; CLhep predicted at 1 µM [8]: < 5 mL/min/kg
510	Cc1ccc(NC(=O)[C@H](CC(C)C)n2ccc(S(=O)(=O)C(C)C)cc2=O)nc1	
620	Cc1csc(NC(=O)c2cc(Sc3nccn3C)c(F)cc2N)n1	
560	Cc1ccc(NC(=O)[C@H](CC2CCCC2)n2ccc(S(C)(=O)=O)cc2=O)nc1	half-life at 1 µM [3]: > 120 min; half-life at 1 µM [4]: 9 min; CLhep predicted at 1 µM [7]: 58 mL/min/kg; CLhep predicted at 1 µM [8]: 5 mL/min/kg
500	CCS(=O)(=O)c1ccn([C@@H](CC2CCCC2)C(=O)Nc2ccc(C)cn2)c(=O)c1	
230	Cc1ccc(NC(=O)[C@H](CC2CCCC2)n2ccc(S(=O)(=O)C(C)C)cc2=O)nc1	
110	Cc1ccc(NC(=O)[C@H](CC2CCCC2)n2ccc(S(=O)(=O)C3CC3)cc2=O)nc1	
60	Cc1ccc(NC(=O)[C@H](CC2CCCC2)n2ccc(S(=O)(=O)C3CCC3)cc2=O)nc1	
480	Cc1ccc(NC(=O)[C@H](CC2CCCC2)n2cc(Cl)c(S(C)(=O)=O)cc2=O)nc1	
440	Cc1ccc(NC(=O)[C@H](CC2CCCC2)n2cc(C)c(S(C)(=O)=O)cc2=O)nc1	
260	Cc1ccc(NC(=O)[C@H](CC2CCCC2)n2cc(Cl)c(S(=O)(=O)C(C)C)cc2=O)nc1	
160	Cc1ccc(NC(=O)[C@H](CC2CCCC2)n2cc(C)c(S(=O)(=O)C(C)C)cc2=O)nc1	
70	Cc1ccc(NC(=O)[C@H](CC2CCCC2)n2ccc(S(=O)(=O)C(C)C)c(Cl)c2=O)nc1	
670	Cc1ccc(NC(=O)[C@H](CC2CCC2)n2ccc(S(=O)(=O)C(C)C)cc2=O)nc1	
240	Cc1ccc(NC(=O)[C@H](CC2CCCCC2)n2ccc(S(=O)(=O)C(C)C)cc2=O)nc1	
160	Cc1ccc(NC(=O)[C@H](CC2CCC(F)(F)CC2)n2ccc(S(=O)(=O)C(C)C)cc2=O)nc1	half-life at 1 µM [3]: 73 min; half-life at 1 µM [4]: 42 min; CLhep predicted at 1 µM [7]: 36 mL/min/kg; CLhep predicted at 1 µM [8]: 8 mL/min/kg
1500	CCS(=O)(=O)c1ccn([C@@H](CC2CCOCC2)C(=O)Nc2ccc(C)cn2)c(=O)c1	half-life at 1 µM [3]: > 120 min; half-life at 1 µM [4]: > 120 min; CLhep predicted at 1 µM [7]: < 18 mL/min/kg; CLhep predicted at 1 µM [8]: < 5 mL/min/kg
3300	Cc1ccc(NC(=O)[C@H](Cc2ccccc2)n2ccc(S(=O)(=O)C(C)C)cc2=O)nc1	
600	CC(C)S(=O)(=O)c1ccn([C@@H](CC2CCCC2)C(=O)Nc2ccccn2)c(=O)c1	
330	CC(C)S(=O)(=O)c1ccn([C@@H](CC2CCCC2)C(=O)Nc2ccc(C(F)(F)F)cn2)c(=O)c1	
140	CS(=O)(=O)c1cc(=O)n([C@@H](CC2CCCC2)C(=O)Nc2ccc(Cl)cn2)cc1Cl	
1300	O=C(Nc1cnccn1)[C@H](CC1CCCC1)n1ccc(S(=O)(=O)C2CC2)cc1=O	
590	O=C(Nc1cnccn1)[C@H](CC1CCCC1)n1ccc(S(=O)(=O)C2CCC2)cc1=O	
700	Cc1cnc(NC(=O)[C@H](CC2CCCC2)n2cc(Cl)c(S(=O)(=O)C(C)C)cc2=O)cn1	
720	CC(C)S(=O)(=O)c1ccn([C@@H](CC2CCCC2)C(=O)Nc2cc[nH]n2)c(=O)c1	
910	CC(C)S(=O)(=O)c1ccn([C@@H](CC2CCCC2)C(=O)Nc2ccn(C)n2)c(=O)c1	bioavailability [1]: 8%; half-life [2]: 12 min; half-life at 1 µM [3]: 93 min; half-life at 1 µM [4]: 8 min; fraction unbound [5]: 0.59; clearance [6]: 164 mL/min/kg; CLhep predicted at 1 µM [7]: 58 mL/min/kg; CLhep predicted at 1 µM [8]: 10 mL/min/kg
1500	Cn1ccc(NC(=O)[C@H](CC2CCCC2)n2ccc(S(=O)(=O)C3CC3)cc2=O)n1	
260	Cn1ccc(NC(=O)[C@H](CC2CCCC2)n2ccc(S(=O)(=O)C3CCC3)cc2=O)n1	
1300	CC(C)S(=O)(=O)c1ccn([C@@H](CC2CCCC2)C(=O)Nc2nccs2)c(=O)c1	
